Consider 3 substances from US10881709B2, “Immune system modulators and compositions” (Canimguide Therapeutics AB, priority 2015, dated 2021).

In test [1] the test system is PBMCs. Kind of test: Direct binding to PBMCs (immunocytochemistry, rosetting of coated beads). Set-up: species or system human.
Test [2] addresses P3028 (PGE73=His-tag-P3028) (Homo sapiens, UniProt P02768). Kind of test: Blocking of P3028 binding by peptide inhibitors in solution (PEPSCAN-based ELISA). Particulars: peptide 0.5 mg/mL. As to the method: Three candidate peptide inhibitors of P3028 sequences/structures were identified and their blocking capacity in solution was tested. Potential peptide inhibitors of P3028 were synthesized on a chip. The linear and/or CLIPS peptides were synthesized based on the amino acid sequence of the target protein using standard Fmoc-chemistry and deprotected using trifluoric acid with scavengers. The constrained peptides were synthesized on chemical scaffolds in order to reconstruct conformational epitopes, using Chemically Linked Peptides on Scaffolds (CLIPS) technology (Timmerman et al. (2007)). For example, the single looped peptides were synthesized containing a dicysteine, which was cyclized by treating with alpha, alpha′-dibromoxylene and the size of the loop is varied by introducing cysteine residues at variable spacing. […] After one hour, the color development was measured. The color development was quantified with a charge coupled device (CCD)—camera and an image processing system.
The raw data (Raw Data: Optical density, Arbitrary OD units) are optical values obtained by a CCD-camera. The values mostly range from 0 to 3000, a log scale similar to 1 to 3 of a standard 96-well plate ELISA-reader. […] Sometimes a well contains an air-bubble resulting in a false-positive value, the cards are manually inspected and any values caused by an air-bubble are scored as 0. […]
(In general: ELISA stands for enzyme-linked immunosorbent assay.)

Test [3] deals with PBMCs. Kind of test: Mitochondrial metabolism of PBMCs, conversion of MTS. It is filed as cell-based, human. The note with it: PBMCs from cancer patients, 5-40 μg/ml. As to the method:
PBMCs from eight healthy control samples and nine cancer patients with various diagnoses (including renal cell cancer, malignant melanoma, rectal cancer, small cell lung cancer, non-small cell lung cancer (adenocarcinoma), squamous cell carcinoma, bladder cancer, osteosarcoma, pancreatic cancer, or bronchial cancer) were cultured in a modified version of the ex vivo model of Example 2 for seven days in the presence of various quantities of P28R (SEQ ID NO: 2), and control samples were untreated with P28R. […] Similar results were obtained when the PBMCs were cultured for only three days.
PBMCs from cancer patients with various diagnoses were cultured in a modified version of the ex vivo model of Example 2 with various concentrations of P28R or P27 (N=9 for P28R: N=8 for P27). The concentrations were either untreated control samples, 5 μg/mL (“SCF28-R5” and “SCF275”), 10 μg/ml (“SCF28-R10” and “SCF2710”), 20 μg/ml (“SCF28-R20” and “SCF2720”), or 40 μg/ml (“SCF28-R40” and “SCF2740”).

Test [4] has as its system PBMCs. Briefly: IL-2 induced proliferation of PBMCs, BrdU incorporation. It is filed as cell-based, human. Particulars: PBMCs with low initial proliferation / low response to IL-2, 7 days. As to the method:
PBMCs were cultured for 7 days with IL-2 and the proliferative rate was determined as incorporation of BrdU. Each bar represents mean value of triplets. Similar to the studies on the efficacy of antibodies (see FIG. 22) directed against P3028 to reverse cancer related immunosuppression determined as a poor proliferative response of PBMCs from cancer patients to IL-2, the efficacy of the low molecular weight inhibitor P28R on reversal of suppressed IL-2 induced proliferation was investigated. For each quantity of added P28R, IL-2 stimulated cells 240 are shown in the left, and unstimulated 242 are shown on the right. […]
The effect of P28R (SEQ ID NO: 2) on IL-2 induced proliferation was measured in a BrdU incorporation assay. […]
The response of high responders and low responders to various doses of P28R was compared. […] IL-2-induced proliferation was measured as BrdU incorporation, as in the above example, and the results are shown for high responders in FIG. 36A, and low responders in FIG. 36B.
PBMCs from low responder cancer patients of Example 30 were cultured as in Example 30, except that some samples were cultured with various concentrations P28R (aka “SCF28-R”), and others were cultured with various concentrations of P27 (aka “SCF27”). […] BrdU incorporation was measured as in Example 30. […]

For another test, the target named is P3028 (SEQ ID NO: 185) (Homo sapiens, UniProt P02768). Briefly: Positional scan: P3028 binding to solid phase P28R variants (ELISA). As to the method: Positional scan data was used to study the influence of substitution of different types of amino acids in each position of P28R (SEQ ID NO: 2) on the binding of P3028 (SEQ ID NO: 185). Each amino acid in the peptide sequence of P28R (SEQ ID NO: 2) was exchanged with all of the naturally occurring amino acids, and immobilized on a solid phase chip. The binding of P3028 to these “mutated” P28 R peptides synthesized on a chip was determined using the ELISA technique. In view of the results, Table 13 includes a column identifying optional substitutions at each position that can maintain binding to P3028.

The test system of test [5] is PBMCs from healthy control person. Briefly: PBMC activation (CD69/CD71, flow cytometry) in RPMI plus 10% human AB serum. The test is classed as cell-based. Particulars: 40 μg/mL, 24 hours, healthy PBMCs. The procedure:
The activity of peptide P28R (SEQ ID NO: 2) and modifications of P28R was studied in a human ex vivo model using PBMCs in short term cultures, 24 or 48 hours. Effects of P28R and modifications of P28R on PBMCs from a healthy control person were studied. Activation was measured as percentage of cells with enhanced marker CD69 using flow cytometry. PBMCs were incubated with the peptides (40 μg/mL) for 24 hours in RPMI plus 10% human AB serum.
As observed in Example 37, P28R (SEQ ID NO: 2) can stimulate PBMCs from healthy controls in short term cultures when RPMI plus 10% normal human AB serum is used as culture medium. Truncations of P28R were also assessed for their ability to activate PBMCs. PBMCs were incubated with the peptides (40 μg/mL) for 24 hours in RPMI plus 10% human AB serum. PBMC activation was measured as percent cells with enhanced expression of either CD69 (FIG. 42A) or CD71 (FIG. 42B) using flow cytometry. Two experiments were performed for each peptide.
Effects of modified peptides on activation of PBMCs from healthy control person were assessed. Activation was determined as percentage of cells with enhanced marker CD69 or CD71 using flow cytometry. PBMCs were incubated with the peptides (40 μg/mL) for 48 hours in RPMI plus 10% human AB serum.
(In flow cytometry, cells or beads pass a laser one at a time.)

The subject of test [6] is PBMCs. Kind of test: PBMC activation (CD69) in culture medium with cancer sera. It is filed as cell-based. The note with it: sera from dogs with cancer or human patients with cancer.

Ends that are not written are not given here.

Regarding “biotinylated P28R: P28R labelled with biotin (KKLDTFFVKLSLFTER; also: biotin label, position not given here)”, the “direct binding to PBMCs” value with PBMCs [1] was “bind directly to PBMCs”.

Take KKLDTFFKKLSLFTER [P27]: the “blocking of the binding of P3028 in solution” value in test [2] was “does not”. Further, the “effect on MTS conversion” value in the test with PBMCs [3] is listed as “no effect”. Also, in the test on PBMCs [4], the “effect on IL-2 induced proliferation (BrdU)” value is listed as “enhanced the proliferative rate”.

Take FFVKLS [P28 core]: the “binding to P3028 based on positional scans” value in the test with P3028 (SEQ ID NO: 185) is listed as “as efficiently as the full length peptide P28R”. In test [5], the “PBMC activation, enhanced CD69 or CD71” value is reported as “did not activate”. Moreover, in the test with PBMCs [6], the “PBMC activation, enhanced CD69” value is on record as “activated PBMCs”.
